The source of these data is PubChem BioAssay (NCI).

Test systems include DU-145 prostate; SNB-75 CNS; OVCAR-3 ovarian; LOX IMVI melanoma; RPMI-8226 leukemia; HT29 colon; HCT-15 colon; NCI-H226 lung; A498 renal; MCF7 breast.
What all share (experiment): growth of human tumour cells (NCI), 48 h

Where “and” joins values, the source holds several entries; their conditions need not be identical. Equal values may be shown once.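 Compound exposure: 48 hours, 5 concentrations, 96-well plates. GI50 = concentration required for 50% inhibition of growth. TGI: concentration producing complete growth inhibition.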

In the case of `Cc1cccc(N=NC(=O)NNc2cccc(C)c2C)c1C`, the TGI in the experiment on DU-145 prostate is > 100 µM; in the experiment on SNB-75 CNS, > 100 µM; in the experiment with OVCAR-3 ovarian, > 100 µM; with LOX IMVI melanoma it was 60.2 µM; with RPMI-8226 leukemia it was 74.8 µM; in the experiment on HT29 colon, > 100 µM. Also, the TGI in the experiment on HCT-15 colon is > 100 µM; in the experiment on NCI-H226 lung, > 100 µM; in the experiment with A498 renal, 92.6 µM.

As for `Cc1c(S(=O)(=O)/N=C(\NO)Nc2ccc(Cl)c(Cl)c2)sc2ccc(Cl)cc12`, the TGI was 37.1 µM in the experiment with DU-145 prostate; 31.1 µM with OVCAR-3 ovarian; 43.3 µM with LOX IMVI melanoma; > 100 µM in the experiment on RPMI-8226 leukemia; 29.3 µM in the experiment with HT29 colon; 35.7 µM in the experiment on HCT-15 colon. The TGI in the experiment on NCI-H226 lung was found to be 43.8 µM; in the experiment with MCF7 breast, 86.8 µM; in the experiment on A498 renal, 38.2 µM.

For `Cn1cc(NC(=O)c2cc(NC(=O)CN=C(N)N)cn2C)cc1C(=O)NCCC(=N)N`, the TGI in the experiment on DU-145 prostate, in the experiment on OVCAR-3 ovarian, in the experiment on LOX IMVI melanoma, in the experiment on RPMI-8226 leukemia, in the experiment on HT29 colon and in the experiment with HCT-15 colon was > 100 µM in each case. Besides, the TGI in the experiment with NCI-H226 lung, in the experiment with MCF7 breast and with A498 renal was > 100 µM in each case.

As to `CC1=NNC(N)=N/C1=C\C(Sc1ccc(Cl)cc1)c1ccc([N+](=O)[O-])cc1` (configuration not stated), the TGI in the experiment with DU-145 prostate is > 100 µM; with LOX IMVI melanoma, > 100 µM; in the experiment on RPMI-8226 leukemia, > 100 µM; in the experiment on HT29 colon it was > 100 µM; with HCT-15 colon, > 100 µM; in the experiment on NCI-H226 lung, 68.1 µM. For the same compound, the TGI in the experiment on MCF7 breast and with A498 renal was > 100 µM throughout.

On to `Cc1ccc(SCC(CF)OC(C)n2cnc3c(=O)[nH]c(N)nc32)cc1` (configuration not stated), for which the TGI with DU-145 prostate, in the experiment on SNB-75 CNS, with OVCAR-3 ovarian, with LOX IMVI melanoma, in the experiment with RPMI-8226 leukemia and with HT29 colon was > 100 µM in each case. In addition, the TGI with HCT-15 colon, with NCI-H226 lung and in the experiment on MCF7 breast was > 100 µM throughout.

In the case of `O=c1[nH]nc(-c2ccccc2)c2[nH]c3c4ccccc4ccc3c12`, the TGI in the experiment with SNB-75 CNS was > 100 µM; in the experiment on RPMI-8226 leukemia it was 3.57 µM; in the experiment with HCT-15 colon it was > 100 µM; in the experiment with NCI-H226 lung, > 100 µM; in the experiment with MCF7 breast, > 100 µM; with A498 renal, > 100 µM.

As to `CC12C(=O)CC(CC1=O)C2(C)C`, the TGI with DU-145 prostate, with SNB-75 CNS, with OVCAR-3 ovarian, in the experiment on LOX IMVI melanoma, in the experiment on RPMI-8226 leukemia and in the experiment on HT29 colon was > 100 µM in each case. For the same compound, the TGI in the experiment with HCT-15 colon, in the experiment with NCI-H226 lung and with MCF7 breast was > 100 µM in each case.

Take `CC(C)=CCC/C(C)=C/C=C/C(C)=C/C=C/C(C)=C/C=C/C=C(C)/C=C/C=C(C)/C=C/[C@H]1C(C(C)(C)O)CC[C@]1(C)O` (some centres not stated): the TGI in the experiment with DU-145 prostate came out at 49.9 µM; with OVCAR-3 ovarian, 37.8 µM; with LOX IMVI melanoma, 68.3 µM; in the experiment on RPMI-8226 leukemia, 54.5 µM; in the experiment with HT29 colon it was 86.2 µM; with HCT-15 colon, 51.8 µM. Further, the results for the TGI with NCI-H226 lung, in the experiment with MCF7 breast and in the experiment on A498 renal were > 100 µM, 35.5 µM and 84.8 µM, respectively.

For the compound `N#CC(NC12CC3CC(CC(C3)C1)C2)c1ccccc1C(F)(F)F` (configuration not stated), the TGI with OVCAR-3 ovarian, in the experiment with LOX IMVI melanoma, in the experiment on RPMI-8226 leukemia, in the experiment with HT29 colon, with HCT-15 colon and in the experiment with NCI-H226 lung was > 100 µM in each case.

On to `CC1NC(=O)CC(c2ccccc2)N(N=O)C1c1ccccc1` (configuration not stated), for which the TGI in the experiment on SNB-75 CNS is > 65.2 µM; in the experiment on OVCAR-3 ovarian, > 100 µM; with LOX IMVI melanoma it was > 100 µM; in the experiment with RPMI-8226 leukemia, 90.8 µM; with HT29 colon it was > 100 µM; in the experiment with HCT-15 colon, > 100 µM. Also, the TGI in the experiment on NCI-H226 lung was > 100 µM; with MCF7 breast, > 100 µM; in the experiment with A498 renal it was 52.3 µM.

In the case of `O=C1CCC(c2ccc(Cl)cc2)=NN1c1nsc2ccccc12`, the TGI was 56 µM in the experiment on SNB-75 CNS, 44.7 µM in the experiment with OVCAR-3 ovarian, 42.6 µM in the experiment with RPMI-8226 leukemia and > 100 µM with HT29 colon.

In the case of `N=C(N)c1ccc(C(NC(=O)CNS(=O)(=O)c2ccc3ccccc3c2)P(=O)(Oc2ccccc2)Oc2ccccc2)cc1` (configuration not stated), the TGI in the experiment on DU-145 prostate, in the experiment on SNB-75 CNS, in the experiment on OVCAR-3 ovarian, in the experiment on LOX IMVI melanoma, in the experiment with RPMI-8226 leukemia and with HT29 colon was > 100 µM throughout. Moreover, the TGI is > 100 µM in the experiment with HCT-15 colon, 38.8 µM in the experiment on NCI-H226 lung and > 100 µM with MCF7 breast.

Consider `COC(CNC(=O)C(C)NC(=O)CCc1ccccc1)OC` (configuration not stated), for which the TGI in the experiment on DU-145 prostate, in the experiment with SNB-75 CNS, in the experiment on RPMI-8226 leukemia, in the experiment with HT29 colon, in the experiment on HCT-15 colon and with NCI-H226 lung was > 100 µM each time. Besides, in the experiment on MCF7 breast, the TGI was > 100 µM.

In the case of `O=P(Nc1ccc(Cl)cc1)(Oc1ccccc1)N(CCCl)CCCl` (configuration not stated), the TGI in the experiment on SNB-75 CNS, in the experiment on OVCAR-3 ovarian, in the experiment on HT29 colon, in the experiment with HCT-15 colon, with NCI-H226 lung and in the experiment with A498 renal was > 100 µM in each case.

Consider `COc1cc(/C=C(\C#N)C(N)=O)cc(Br)c1O`, for which the TGI is 14.4 µM and > 100 µM in the experiment on SNB-75 CNS; > 100 µM with OVCAR-3 ovarian; 59.2 µM and > 100 µM in the experiment with LOX IMVI melanoma; > 100 µM with RPMI-8226 leukemia; > 100 µM in the experiment with HT29 colon; > 100 µM in the experiment on HCT-15 colon. Moreover, the TGI in the experiment on NCI-H226 lung, in the experiment with MCF7 breast and in the experiment with A498 renal was > 100 µM each time. Besides, the GI50 in the experiment on A498 renal was > 100 µM and 60.3 µM.

Consider `NC(Cc1ccccc1)C(=O)N[C@H]1c2ccsc2/C(=N/O)[C@H]1O` (some centres not stated), for which the TGI in the experiment on DU-145 prostate, in the experiment with OVCAR-3 ovarian, in the experiment with LOX IMVI melanoma, in the experiment with HT29 colon, with HCT-15 colon and with NCI-H226 lung was > 100 µM throughout. In addition, the TGI in the experiment with MCF7 breast and in the experiment with A498 renal was > 100 µM throughout.
